The results in this text go back to US12522594B2, “2-heteroaryl-3-oxo-2,3-dihydropyridazine-4-carboxamides for the treatment of cancer” (Deutsches Krebsforschungszentrum, priority 2017, dated 2026).

The target in assay [1] is T1, AHR (Homo sapiens, UniProt P35869).
T1 sequence (P35869 11-848): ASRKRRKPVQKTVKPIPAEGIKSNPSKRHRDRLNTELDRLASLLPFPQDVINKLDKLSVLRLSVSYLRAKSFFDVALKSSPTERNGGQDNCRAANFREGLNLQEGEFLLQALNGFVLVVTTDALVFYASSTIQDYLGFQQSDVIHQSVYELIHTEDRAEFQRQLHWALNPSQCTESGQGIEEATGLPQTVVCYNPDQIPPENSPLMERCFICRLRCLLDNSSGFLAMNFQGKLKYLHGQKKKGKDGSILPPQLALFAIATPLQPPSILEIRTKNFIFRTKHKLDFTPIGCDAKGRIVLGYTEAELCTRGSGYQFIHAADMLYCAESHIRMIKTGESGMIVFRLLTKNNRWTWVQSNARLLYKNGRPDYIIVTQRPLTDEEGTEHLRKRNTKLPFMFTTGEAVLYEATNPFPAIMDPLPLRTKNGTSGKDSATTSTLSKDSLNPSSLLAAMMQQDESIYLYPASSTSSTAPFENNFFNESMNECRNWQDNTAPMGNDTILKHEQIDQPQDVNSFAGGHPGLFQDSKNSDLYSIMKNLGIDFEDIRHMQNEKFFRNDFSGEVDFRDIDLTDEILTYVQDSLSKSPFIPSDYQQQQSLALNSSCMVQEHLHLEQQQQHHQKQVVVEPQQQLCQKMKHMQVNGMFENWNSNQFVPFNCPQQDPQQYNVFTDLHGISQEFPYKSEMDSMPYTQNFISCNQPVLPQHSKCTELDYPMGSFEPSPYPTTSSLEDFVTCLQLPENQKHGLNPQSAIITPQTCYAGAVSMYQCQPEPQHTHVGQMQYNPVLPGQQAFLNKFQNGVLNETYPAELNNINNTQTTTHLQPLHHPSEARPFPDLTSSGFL
The assay can be described thus: In vitro assay 2: agonism in human cell line (transactivation assay, U87 cells, DRE firefly luciferase reporter). The assay is classed as cell-based. On the set-up: host or cells: U87 glioblastoma cells, stably transfected with DRE firefly luciferase and renilla reporter constructs. Conditions: no kynurenic acid, 20 hours, read-out: Assay 2: AHR-luc Hum Agonism IC50. As to the method:
(§1) Transactivation Assay in Human Cell Line (In Vitro Assays 1 and 2)
(§2) Transactivation assays were carried out in U87 glioblastoma cells (ATCC) endogenously expressing AHR. In addition the cells were stably transfected with an AHR inducible firefly luciferase reporter gene construct that carried AHR-binding sites (DRE) in its promoter and a renilla reporter gene construct with constitutively active promoter. Kynurenic acid is an endogenous AHR activating ligand and was used to prestimulate test cells prior to testing the antagonistic properties of compounds.
In Vitro Assay 2: Agonism in Human Cell Line
As positive activation control cells were incubated with 300 uM kynurenic acid. Normalization was done by positive and negative controls.

Assay [2] concerns the target T1, AHR. The assay can be described thus: In vitro assay 1: antagonism in human cell line (transactivation assay, U87 cells prestimulated with kynurenic acid, DRE firefly luciferase reporter). The assay is classed as cell-based. On the set-up: host or cells: U87 glioblastoma cells, stably transfected with DRE firefly luciferase and renilla reporter constructs. Conditions: 150 uM kynurenic acid, 20 hours, read-out: Assay 1: AHR-luc Hum Antagonism IC50. As to the method:
as §1, §2
In Vitro Assay 1: Antagonism in Human Cell Line
Normalization was done by positive and negative controls.
(A reporter such as luciferase makes a cellular process visible.)

As a reminder, the IC50 is the concentration needed to halve the response being measured. On to `CCC(CO)NC(=O)c1cc(-c2ccc(C)cc2)nn(-c2cnn(C)c2)c1=O` (single isomer, unassigned) [Example 6, N-(1-Hydroxybutan-2-yl)-6-(4-methylphenyl)-2-(1-methyl-1H-pyrazol-4-yl)-3-oxo-2,3-dihydropyridazine-4-carboxamide], for which the figures for the IC50 at AHR [1] and on AHR [2] were above 20000 nM and 181 nM, respectively.

Turning to `COC[C@@H](CO)NC(=O)c1cc(-c2ccc(C(F)(F)F)cc2)nn(-c2cccnc2)c1=O` [Example 257, N-[(2R)-1-Hydroxy-3-methoxypropan-2-yl]-3-oxo-2-(pyridin-3-yl)-6-[4-(trifluoromethyl)phenyl]-2,3-dihydropyridazine-4-carboxamide], the results for the IC50 on AHR [1] and on AHR [2] were above 20000 nM and 26.3 nM, respectively.

`O=C(N[C@H]1COC[C@H]1O)c1cc(-c2ccc(Cl)cc2)nn(-c2cccnc2)c1=O` (racemic) [Example 171, rac-6-(4-chlorophenyl)-N-[(cis)-4-hydroxytetrahydrofuran-3-yl]-3-oxo-2-(pyridin-3-yl)-2,3-dihydropyridazine-4-carboxamide]: the IC50 on AHR [1] is above 20000 nM; at AHR [2], 58.4 nM.

Take `O=C(N[C@H]1COC[C@@H]1O)c1cc(-c2ccc(Cl)cc2)nn(-c2cncc(F)c2)c1=O` (single isomer, unassigned; enantiomer 1) [Example 155, 6-(4-Chlorophenyl)-2-(5-fluoropyridin-3-yl)-N-[(trans)-4-hydroxytetrahydrofuran-3-yl]-3-oxo-2,3-dihydropyridazine-4-carboxamide, Enantiomer 1]: the results for the half-maximal inhibitory concentration (IC50) at AHR [1] and on AHR [2] were above 20000 nM and 90.5 nM, respectively.

As to `O=C(NC[C@H](O)C(F)(F)F)c1cc(-c2ccc(CF)cc2)nn(-c2cccnc2)c1=O` [Example 280, 6-[4-(Fluoromethyl)phenyl]-3-oxo-2-(pyridin-3-yl)-N-[(2S)-3,3,3-trifluoro-2-hydroxypropyl]-2,3-dihydropyridazine-4-carboxamide], the IC50 at AHR [1] was above 20000 nM; on AHR [2], 178 nM.

For `CC(C)(O)C(NC(=O)c1cc(-c2ccc(OC(F)(F)F)cc2)nn(-c2cccnc2)c1=O)C(F)(F)F` (single isomer, unassigned; enantiomer 2) [Example 137, 3-Oxo-2-(pyridin-3-yl)-N-[1,1,1-trifluoro-3-hydroxy-3-methylbutan-2-yl]-6-[4-(trifluoromethoxy)phenyl]-2,3-dihydropyridazine-4-carboxamide, Enantiomer 2], the results for the IC50 at AHR [1] and at AHR [2] were above 20000 nM and 4.23 nM, respectively.

For the compound `CC(C)(O)C(NC(=O)c1cc(-c2ccc(OC(F)(F)F)cc2)nn(-c2cccnc2)c1=O)C(F)(F)F` (single isomer, unassigned; enantiomer 1) [Example 136, 3-Oxo-2-(pyridin-3-yl)-N-[1,1,1-trifluoro-3-hydroxy-3-methylbutan-2-yl]-6-[4-(trifluoromethoxy)phenyl]-2,3-dihydropyridazine-4-carboxamide, Enantiomer 1], the IC50 is above 20000 nM at AHR [1] and 60.4 nM at AHR [2].

For the compound `CC(C)(O)CNC(=O)c1cc(-c2ccc(C(F)(F)F)nc2)nn(-c2cncc(F)c2)c1=O` [Example 344, 2-(5-Fluoropyridin-3-yl)-N-(2-hydroxy-2-methylpropyl)-3-oxo-6-[6-(trifluoromethyl)pyridin-3-yl]-2,3-dihydropyridazine-4-carboxamide], the IC50 at AHR [1] was above 20000 nM; at AHR [2], 174 nM.

Take `O=C(N[C@H](CO)C1CC1)c1cc(-c2ccc(C(F)F)cc2)nn(-c2cccnc2)c1=O` [Example 150, N-[(1S)-1-Cyclopropyl-2-hydroxyethyl]-6-[4-(difluoromethyl)phenyl]-3-oxo-2-(pyridin-3-yl)-2,3-dihydropyridazine-4-carboxamide]: the IC50 was above 20000 nM on AHR [1] and 19.9 nM on AHR [2].

`C[C@@H](CO)NC(=O)c1cc(-c2ccc(C(F)(F)F)cc2)nn(-c2cn[nH]c2)c1=O` [Example 244, N-[(2S)-1-Hydroxypropan-2-yl]-3-oxo-2-(1H-pyrazol-4-yl)-6-[4-(trifluoromethyl)phenyl]-2,3-dihydropyridazine-4-carboxamide]: the IC50 at AHR [1] is above 20000 nM; at AHR [2], 11.9 nM.

Regarding `C[C@H](NC(=O)c1cc(-c2ccc(CF)cc2)nn(-c2cnn(C)c2)c1=O)C(C)(C)O` [Example 284, 6-[4-(Fluoromethyl)phenyl]-N-[(2S)-3-hydroxy-3-methylbutan-2-yl]-2-(1-methyl-1H-pyrazol-4-yl)-3-oxo-2,3-dihydropyridazine-4-carboxamide], the IC50 on AHR [1] was above 20000 nM; at AHR [2], 571 nM.

For `Cn1cc(-n2nc(-c3ccc(OC(F)F)cc3)cc(C(=O)NC(C(C)(C)O)C(F)(F)F)c2=O)cn1` (stereo not drawn) [Example 305, 6-[4-(Difluoromethoxy)phenyl]-2-(1-methyl-1H-pyrazol-4-yl)-3-oxo-N-(1,1,1-trifluoro-3-hydroxy-3-methylbutan-2-yl)-2,3-dihydropyridazine-4-carboxamide], the IC50 on AHR [1] was above 20000 nM; on AHR [2], 1.64 nM.

For the compound `Cn1cc(-n2nc(-c3ccc(OC(F)(F)F)cc3)cc(C(=O)NCC(C)(C)O)c2=O)cn1` [Example 59, N-(2-Hydroxy-2-methylpropyl)-2-(1-methyl-1H-pyrazol-4-yl)-3-oxo-6-[4-(trifluoromethoxy)phenyl]-2,3-dihydropyridazine-4-carboxamide], the results for the IC50 on AHR [1] and at AHR [2] were above 20000 nM and 20 nM, respectively.

In the case of `O=C(NC[C@H](O)CF)c1cc(-c2ccc(OC(F)(F)F)cc2)nn(-c2cccnc2)c1=O` [Example 296, N-[(2S)-3-Fluoro-2-hydroxypropyl]-3-oxo-2-(pyridin-3-yl)-6-[4-(trifluoromethoxy)phenyl]-2,3-dihydropyridazine-4-carboxamide], the IC50 at AHR [1] was above 20000 nM; on AHR [2] it was 118 nM.

For the compound `C[C@H](NC(=O)c1cc(-c2ccc(Cl)cc2)nn(-c2cn[nH]c2)c1=O)C(C)(C)O` [Example 276, 6-(4-Chlorophenyl)-N-[(2S)-3-hydroxy-3-methylbutan-2-yl]-3-oxo-2-(1H-pyrazol-4-yl)-2,3-dihydropyridazine-4-carboxamide], the 50% inhibitory concentration (IC50) was above 20000 nM at AHR [1] and 131 nM at AHR [2].

Consider `O=C(N[C@H]1CCC[C@@H]1O)c1cc(-c2ccc(OC(F)(F)F)cc2)nn(-c2cccnc2)c1=O` [Example 132, N-[(1S,2S)-2-Hydroxycyclopentyl]-3-oxo-2-(pyridin-3-yl)-6-[4-(trifluoromethoxy)phenyl]-2,3-dihydropyridazine-4-carboxamide], for which the concentration for half-maximal inhibition (IC50) on AHR [1] was above 20000 nM; at AHR [2], 6.88 nM.

Turning to `CC(C)(O)CNC(=O)c1cc(-c2ccc(Cl)cc2)nn(-c2cnoc2)c1=O` [Example 269, 6-(4-Chlorophenyl)-N-(2-hydroxy-2-methylpropyl)-2-(1,2-oxazol-4-yl)-3-oxo-2,3-dihydropyridazine-4-carboxamide], the IC50 was above 20000 nM at AHR [1] and 61.7 nM at AHR [2].

With `C[C@H](NC(=O)c1cc(-c2ccc(Cl)cc2)nn(-c2cnn(C)c2)c1=O)C(C)(C)O` [Example 316, 6-(4-Chlorophenyl)-N-[(2S)-3-hydroxy-3-methylbutan-2-yl]-2-(1-methyl-1H-pyrazol-4-yl)-3-oxo-2,3-dihydropyridazine-4-carboxamide], the IC50 on AHR [1] was above 20000 nM; on AHR [2] it was 20.6 nM.
